Here are results for six molecules from patent US4315928A, “N-Aminosulfenyl carbamate compounds, compositions and use” (priority 1975, dated 1982).

As usually defined, the LD50 is the dose expected to kill half of the subjects tested.

A short description of data set [1]: in vivo. Particulars: rat, in vivo, po. As to the method:
(§1) These compositions were also evaluated to determine their peroral toxicity to mammals by conventional methods. The animal selected for this experiment was the rat.

Data set [2] deals with rat. Put plainly: in vivo. The following applies: oral, statement on Table I. As for the experimental part:
as §1

In data set [3] the test system is green beans. Briefly: Phytotoxicity Test, green beans. It counts as in vivo. The following applies: ten days. More on the design: key: A rating of 1 indicates no perceptible injury; ratings of 2, 3 and 4 indicate intermediate degrees of injury; ratings of 2, 3 and 4 indicate intermediate degrees of injury; ratings of 2, 3 and 4 indicate intermediate degrees of injury; 5 indicates the plant was dead. As to the method: (§2) Suspensions of the test compounds were prepared by dissolving one gram of compound in 50 milliliters of acetone in which had been dissolved 0.1 gram (10 percent of the weight of compound) of an alkylphenoxy polyethoxyethanol surfactant, as an emulsifying or dispersing agent. The resulting solution was mixed into 150 milliliters of water to give roughly 200 milliliters of a suspension containing the compound in finely divided form. The thus-prepared stock suspension contained 0.5 percent by weight of compound. The test concentrations in parts per million by weight employed in the tests described hereinbelow were obtained by appropriate dilutions of the stock suspension with water. The test procedures were as follows:
(§3) Experiments were also conducted to determine the phytotoxicity of representative compositions with respect to healthy fresh plants. Solutions of the compounds were prepared as described above to provide a concentration of 2500 parts per million of the test compound. The test plants were sprayed in accordance with the procedure described above for the Mite Foliage Spray Test so as to deliver approximately 100 milliliters of test solution to the leaves of each plant tested. The sprayed plants and controls were set aside for approximately one hour to allow the solutions to dry and were then placed in the greenhouse. After ten days the plants were visually inspected to determine the extent of foliage injury. A rating of 1 indicates no perceptible injury; 5 indicates the plant was dead and ratings of 2, 3 and 4 indicate intermediate degrees of injury based upon the number and extent to which leaves were injured.

The test system of data set [4] is corn. Put plainly: Phytotoxicity Test, corn. Format: in vivo. More on the design: key: A rating of 1 indicates no perceptible injury; ratings of 2, 3 and 4 indicate intermediate degrees of injury; ratings of 2, 3 and 4 indicate intermediate degrees of injury; ratings of 2, 3 and 4 indicate intermediate degrees of injury; 5 indicates the plant was dead. Particulars: ten days. As to the method: as §2, §3

In data set [5] the test system is tomato. Briefly: Phytotoxicity Test, tomato. Further details: key: A rating of 1 indicates no perceptible injury; ratings of 2, 3 and 4 indicate intermediate degrees of injury; ratings of 2, 3 and 4 indicate intermediate degrees of injury; ratings of 2, 3 and 4 indicate intermediate degrees of injury; 5 indicates the plant was dead. The following applies: ten days. It counts as in vivo. As for the experimental part: as §2, §3

Data set [6] has as its system cotton. Put plainly: Phytotoxicity Test, cotton. The following applies: ten days. Further details: key: A rating of 1 indicates no perceptible injury; ratings of 2, 3 and 4 indicate intermediate degrees of injury; ratings of 2, 3 and 4 indicate intermediate degrees of injury; ratings of 2, 3 and 4 indicate intermediate degrees of injury; 5 indicates the plant was dead. Format: in vivo. As for the experimental part:
as §2, §3

For data set [7], the system named is soybeans. Put plainly: Phytotoxicity Test, soybeans. It counts as in vivo. More on the design: key: A rating of 1 indicates no perceptible injury; ratings of 2, 3 and 4 indicate intermediate degrees of injury; ratings of 2, 3 and 4 indicate intermediate degrees of injury; ratings of 2, 3 and 4 indicate intermediate degrees of injury; 5 indicates the plant was dead. The following applies: ten days. As for the experimental part:
as §2, §3

Data set [8] concerns bean aphid (Aphis fabae Scop.). Put plainly: whole plant or invertebrate. The following applies: foliar, 24 h, read-out: Insect Toxicity, % Kill at 250 ppm, BA.
Data set [9] relates to two-spotted mite (Tetranychus urticae Koch). Put plainly: whole plant or invertebrate. The following applies: foliar, 144 h, read-out: Insect Toxicity, % Kill at 250 ppm, TSM.
Data set [10] has as its system southern armyworm (Prodenia eridania, (Cram.)). Briefly: whole plant or invertebrate. Particulars: Spodoptera eridania, 72 h, read-out: Insect Toxicity, % Kill at 250 ppm, SAW.
In data set [11] the test system is Mexican bean beetle (Epilachna varivestis, Muls.). Briefly: whole plant or invertebrate. Particulars: 72 h, read-out: Insect Toxicity, % Kill at 250 ppm, MBB.
For data set [12], the system named is house flies (Musca domestica, L.). Put plainly: whole plant or invertebrate. The following applies: po, 24 h, read-out: Insect Toxicity, % Kill at 250 ppm, HF.

SMILES strings stand for the structures.

With `CCSC(C)=NOC(=O)N(C)SN1CCOCC1` [Compound 4, S-Ethyl-N-[N'-Methyl-N'-(4-Morpholinosulfenyl)Carbamoyloxy]Thioacetimidate], in [1], the LD50 was found to be 141 mg/kg. Further, in data set [2], the “mammalian toxicity (in words)” value is given as “extremely low mammalian toxicity”. For the same molecule, the “Crop Phytotoxicity, Injury Rating at 2500 ppm, GB” value (shortened to “Crop Phytotoxicity … GB”) in data set [3] is 1. Also, the “Crop Phytotoxicity, Injury Rating at 2500 ppm, CN” value (“Crop Phytotoxicity … CN” below) in [4] was found to be 1. In data set [5], the “Crop Phytotoxicity, Injury Rating at 2500 ppm, TOM” value (from here on “Crop Phytotoxicity … TOM”) is given as 1. The “Crop Phytotoxicity, Injury Rating at 2500 ppm, COT.” value (“Crop Phytotoxicity … COT.” below) in data set [6] amounted to 1. Also, the “Crop Phytotoxicity, Injury Rating at 2500 ppm, SOYBN.” value (“Crop Phytotoxicity … SOYBN.” below) in data set [7] is given as 2. Also, the mortality at 250 ppm in data set [8], in data set [9], in data set [10], in data set [11] and in data set [12] was 100% throughout.

In the case of `CSC(C)=NOC(=O)N(C)SN1CCOCC1` [Compound 3, S-Methyl N-[N'-Methyl-N'-(4-Morpholinosulfenyl)carbamoyloxy]-thioacetimidate], the “mammalian toxicity (in words)” value in data set [2] is “extremely low mammalian toxicity”. Also, in data set [3], the “Crop Phytotoxicity … GB” value is given as 1. Also, the “Crop Phytotoxicity … CN” value in [4] amounted to 1. Besides, the “Crop Phytotoxicity … TOM” value in data set [5] amounted to 1. In [6], the “Crop Phytotoxicity … COT.” value is reported as 1. Besides, the “Crop Phytotoxicity … SOYBN.” value in data set [7] is 1.

As for `CCN(CC)SN(C)C(=O)ON=C(C)SC` [Compound 17], the LD50 in [1] was 178 mg/kg. For the same molecule, the “mammalian toxicity (in words)” value in data set [2] is given as “extremely low mammalian toxicity”. For the same molecule, in data set [3], the “Crop Phytotoxicity … GB” value turned out to be 2. Also, in data set [4], the “Crop Phytotoxicity … CN” value amounted to 2. The “Crop Phytotoxicity … TOM” value in [5] was found to be 1. In addition, the “Crop Phytotoxicity … COT.” value in data set [6] is listed as 2. The “Crop Phytotoxicity … SOYBN.” value in data set [7] is reported as 2. The mortality at 250 ppm in data set [8] was found to be 100%; in data set [9], 80%; in data set [10], 100%; in data set [11] it was 100%; in data set [12], 100%.

For `CSC(C)=NOC(=O)N(C)SN1CCCCC1` [Compound 12, S-Methyl-N-[N'-Methyl-N'-(1-Piperidinosulfenyl)Carbamoyloxy]Thioacetimidate], in [1], the LD50 came out at 141 mg/kg. Further, the “mammalian toxicity (in words)” value in [2] is given as “extremely low mammalian toxicity”. Moreover, the “Crop Phytotoxicity … GB” value in data set [3] is recorded as 1. Besides, the “Crop Phytotoxicity … CN” value in [4] is recorded as 1. Also, the “Crop Phytotoxicity … TOM” value in data set [5] is listed as 1. Also, in data set [6], the “Crop Phytotoxicity … COT.” value came out at 1. Besides, the “Crop Phytotoxicity … SOYBN.” value in data set [7] turned out to be 1. In addition, the mortality at 250 ppm in data set [8], in [9], in data set [10], in [11] and in [12] was 100% throughout.

In data set [1], `CCCCN(CCCC)SN(C)C(=O)ON=C(C)SC` [Compound 28, S-Methyl N-[N'-Methyl-N'-(Di-n-butylaminosulfenyl)Carbamoyloxy]-Thioacetimidate] gave a median lethal dose (LD50) of 317 mg/kg. In data set [2], the “mammalian toxicity (in words)” value was “extremely low mammalian toxicity”. The “Crop Phytotoxicity … GB” value in data set [3] stood at 1. For the same molecule, the “Crop Phytotoxicity … CN” value in [4] came out at 1. Besides, the “Crop Phytotoxicity … TOM” value in data set [5] is 1. Further, the “Crop Phytotoxicity … COT.” value in [6] came out at 1. For the same molecule, in data set [7], the “Crop Phytotoxicity … SOYBN.” value amounted to 1. Moreover, the mortality at 250 ppm in [8] stood at 100%; in [9] it was 50%; in data set [10] it was 100%; in [11], 100%; in data set [12], 100%.

In [1], `CSC(C)=NOC(=O)N(C)SN(C)C` [Compound 11, S-Methyl N-[N'-Methyl-N'-(Dimethylaminosulfenyl)carbamoyloxy]thioacetimidate] showed a 50% lethal dose (LD50) of 141 mg/kg. The “mammalian toxicity (in words)” value in data set [2] was “extremely low mammalian toxicity”. Moreover, the “Crop Phytotoxicity … GB” value in data set [3] amounted to 1. Further, the “Crop Phytotoxicity … CN” value in data set [4] is recorded as 1. The “Crop Phytotoxicity … TOM” value in [5] was 2. Also, in [6], the “Crop Phytotoxicity … COT.” value was found to be 1. For the same molecule, the “Crop Phytotoxicity … SOYBN.” value in data set [7] was determined as 1. Besides, the mortality at 250 ppm in data set [8] worked out at 100%; in [9], 50%; in data set [10], 100%; in [11], 100%; in data set [12] it was 100%.
